Measured values taken from patent US4960790A, “Derivatives of taxol, pharmaceutical compositions thereof and methods for the preparation thereof” (University of Kansas, priority 1989, dated 1990).
Where a name gives a salt, the structure may show the parent alone. Read-outs that look alike come from different tables or passages of the source.

Columns and labels:
Solubility = assay type: physicochemical
[1] = Plasma stability, human plasma; assay type: in vitro ADME; conditions: 37° C.
Procedure: Stabilities of derivatives at various pHs were studied at 25° and 37°. The plasma studies were conducted at 37° in rat and human plasma. Human plasma was obtained from Watkins Hospital and rat plasma was obtained from the Animal Care Unit of the University of Kansas. […] One hundred microliter samples were removed and was quenched with 250 uL. acetonitrile and centrifuged to precipitate the plasma proteins. The degradation kinetics were studied by HPLC plotting peak area vs. time. The t90 and t50 were calculated. Both chemical and plasma studies were followed by high performance liquid chromatography using a RP-8 column (15 cm) and a precolumn (5 cm). The detector was set at 227 nm. The mobile phase consisted of 0.02M acetate (pH 5): acetonitrile 50:50 or 35:65 and the flow rate ranged from 1-1.5 mL/min or the same solvents containing 0.001M tetrabutylammoniumydrogensulphate and a flow rate of 1 mL/min.

[2] = system: human mammary carcinoma MX-1 xenograft; assay: Subrenal capsule human mammary carcinoma MX-1 xenograft in mice; conditions: for ANML BODY WT DIFF (test minus control) / TEST BODY WT CHG / # OF ANMLS ALIVE CALC/TOTAL / Average tumor WEIGHT CHANGE (DELTA) / Average tumor weight, FINAL: Q4D; for ANML BODY WT DIFF (test minus control) / TEST BODY WT CHG: Day 1 to 11; for # OF ANMLS ALIVE CALC/TOTAL / Average tumor WEIGHT CHANGE (DELTA) / Average tumor weight, FINAL / % T/C: Day 11; for % T/C: Q4D Days 1, 5, 9
Source text: The procedures followed are those described at pages 23-24 of NIH Publication No. 84-2635, In Vivo Cancer Model (February 1984).
In the procedure, test groups of mice (6 mice per test group) and control groups of 12 mice per group are utilized. A tumor fragment (human mammary carcinoma MX-1 xenograft), is implanted under the membranous covering of the kidney of each mouse.
Day 0: Anesthetize animals. Record body weight (Weigh Day 1). Implant tumor, measure and record. Randomize animals after they recover from the anesthetic. Run bacterial cultures. Determine solubilities of test agent. Record deaths daily.
Day 1: Check cultures. Discard experiment if contaminated. Prepare test materials. Initiate test agent injections (in the nape of the neck) based on individual body weight. Treatment is Q4D on Days 1, 5, and 9. Prepare test agent fresh on each injection day and administer based on individual body weight for that day.
Days 5 and 9: Prepare test agent fresh on each injection day and administer based on individual body weight for that day.
Day 11: End and evaluate experiment. Record body weights (Weigh Day 2). Measure tumor in OMU's (Ocular Micrometer Unit--10 OMU's=1 mm) and record.
The parameter measured is mean tumor weight change (delta) based on length and width measurements in millimeters. Mean animal body weights are computed for Day 1 and Day 11, compute T/C for all test groups with>65% survivors on Day 11. An excessive body weight change difference (test minus control) may also be used in evaluating toxicity. The dimensions are measured and recorded in Ocular Micrometer Units (OMU). A computer is utilized for the following:
(1) Converts OMU's to millimeters (mm).
(2) Calculates tumor weights (mgs) from tumor dimensions (mm×mm) following the formula for the volume of a prolate ellipsoid: [formula] (3) Calculates the change (delta) in mean tumor weight for each group of mice:
Change in Mean Tumor Weight=Mean Tumor WeightFINAL -Mean Tumor WeightINITIAL.
(4) Calculates the change (delta) in mean tumor weight for test (T) and control (C) groups.
(5) Calculates T/C% for all test groups with>65% survivors on Final Evaluation Day: [formula]

[3] = Chemical stability in buffer or water; assay type: physicochemical
Procedure: The compound was subjected to stability studies according to the following procedures.
Stabilities of derivatives at various pHs were studied at 25° and 37°. The plasma studies were conducted at 37° in rat and human plasma. Human plasma was obtained from Watkins Hospital and rat plasma was obtained from the Animal Care Unit of the University of Kansas. The derivative concentration used was around 20-25 μg/ml. A stock solution of the compound was prepared at 0.8-1.0 mg/mL and was added to plasma to give the desired concentration (20-25 μg/mL). One hundred microliter samples were removed and was quenched with 250 uL. acetonitrile and centrifuged to precipitate the plasma proteins. The degradation kinetics were studied by HPLC plotting peak area vs. time. The t90 and t50 were calculated. Both chemical and plasma studies were followed by high performance liquid chromatography using a RP-8 column (15 cm) and a precolumn (5 cm). The detector was set at 227 nm. The mobile phase consisted of 0.02M acetate (pH 5): acetonitrile 50:50 or 35:65 and the flow rate ranged from 1-1.5 mL/min or the same solvents containing 0.001M tetrabutylammoniumydrogensulphate and a flow rate of 1 mL/min.
The identity of this peak was further confirmed by the degradation studies of the new derivatives. Thus, 2'(DMG) taxol was incubated with water at 37° and the product was concentrated and purified by preparative TLC. The product after purification was analyzed by HPLC and spectroscopic methods.

microtubule assembly = assay: In vitro microtubule assembly kinetics; assay type: biochemical; conditions: rank order
Procedure: (A) In vitro Microtubule Assembly Kinetics Studies
The microtubule assembly study was conducted using both 2' and 7-derivatives according to the in vitro procedures disclosed, for example, in Mellado et al., Biochemical and Biophysical Research Communications, Vol. 124, No. 2 (1984), pp. 329-336; Magri et al., J. Org. Chem., 51, 797-802 (1986); and Parness et al., Biochemical and Biophysical Research Communications, Vol. 105, No. 3, pp. 1082-1091 (1982).

B-16 melanoma cells = assay: In vitro B16 melanoma cell proliferation; assay type: cell-based; conditions: rank order
Procedure: These studies were conducted according to standard procedures as described in Donoso and Himes, Cancer Biochem. Biophysics, vol. 7, (1984), p. 133.

microtubules = conditions: in vitro / cells, in words; cited from earlier work

CCN(CC)CCC(=O)O[C@@H](C(=O)O[C@H]1C[C@@]2(O)[C@@H](OC(=O)c3ccccc3)[C@@H]3[C@]4(OC(C)=O)CO[C@@H]4C[C@H](O)[C@@]3(C)C(=O)[C@H](OC(C)=O)C(=C1C)C2(C)C)[C@@H](NC(=O)c1ccccc1)c1ccccc1 [Compound 3, HCl salt of 2'-(3-(N,N-diethylamino)propionyl)taxol]
solubility (Solubility): ~ 0.8 mg/mL | half-life ([1]; Human plasma): 0.07 h | ANML BODY WT DIFF (test minus control) ([2]; Table 2, 4.50 mg/kg): 1.2 | TEST BODY WT CHG ([2]; Table 2, 4.50 mg/kg): -2.8 | # OF ANMLS ALIVE CALC/TOTAL ([2]; Table 2, 4.50 mg/kg): 5/5 | Average tumor WEIGHT CHANGE (DELTA) ([2]; Table 2, 4.50 mg/kg): -.78 MGS | Average tumor weight, FINAL ([2]; Table 2, 4.50 mg/kg): .00 MGS | ANML BODY WT DIFF (test minus control) ([2]; Table 2, 9.00 mg/kg): 1.3 | TEST BODY WT CHG ([2]; Table 2, 9.00 mg/kg): -2.7 | # OF ANMLS ALIVE CALC/TOTAL ([2]; Table 2, 9.00 mg/kg): 5/5 | Average tumor WEIGHT CHANGE (DELTA) ([2]; Table 2, 9.00 mg/kg): -.87 MGS | Average tumor weight, FINAL ([2]; Table 2, 9.00 mg/kg): .00 MGS | ANML BODY WT DIFF (test minus control) ([2]; Table 2, 18.00 mg/kg): .7 | TEST BODY WT CHG ([2]; Table 2, 18.00 mg/kg): -3.3 | # OF ANMLS ALIVE CALC/TOTAL ([2]; Table 2, 18.00 mg/kg): 3/4 | Average tumor WEIGHT CHANGE (DELTA) ([2]; Table 2, 18.00 mg/kg): -.82 MGS | Average tumor weight, FINAL ([2]; Table 2, 18.00 mg/kg): .00 MGS | % T/C ([2]; Table 2, 36.00 mg/kg): TOX | # OF ANMLS ALIVE CALC/TOTAL ([2]; Table 2, 36.00 mg/kg): 0/5 | half-life ([3]; 0.02 M Acetate, 0.01 mg/mL, pH 3.5, 25° C.): 439 h | half-life ([3]; 0.02 M Phosphate, 0.02 mg/mL, pH 7.4, 25° C.): 0.25 h

CCN(CC)CCC(=O)O[C@@H](C(=O)O[C@H]1C[C@@]2(O)[C@@H](OC(=O)c3ccccc3)[C@@H]3[C@]4(OC(C)=O)CO[C@@H]4C[C@H](O)[C@@]3(C)C(=O)[C@H](OC(C)=O)C(=C1C)C2(C)C)[C@@H](NC(=O)c1ccccc1)c1ccccc1 [Compound 4, Methanesulphonic acid salt of 2'(N,N-diethylaminopropionyl)taxol]
solubility (Solubility): > 10000 µg/mL | half-life ([3]; 0.02 M acetate, pH 4.5, 25° C.): 305 h | half-life ([3]; 0.02 M acetate, pH 5.5, 25° C.): 20.7 h

CC(=O)O[C@H]1C(=O)[C@]2(C)[C@@H](OC(=O)CN(C)C)C[C@H]3OC[C@@]3(OC(C)=O)[C@H]2[C@H](OC(=O)c2ccccc2)[C@]2(O)C[C@H](OC(=O)[C@H](O)[C@@H](NC(=O)c3ccccc3)c3ccccc3)C(C)=C1C2(C)C [Compound 7, 7-(N,N-Dimethylglycyl)Taxol]
Ability to assemble microtubules (order) (microtubule assembly): taxol >7-(N,N-dimethylglycyl)taxol(11)>2'(N,N-diethylaminopropionyl)taxol(8)>2'(N,N-dimethylglycyl)taxol(2) | % T/C ([2]; Table 2, 4.13 mg/kg): 34% | ANML BODY WT DIFF (test minus control) ([2]; Table 2, 4.13 mg/kg): -.5 | TEST BODY WT CHG ([2]; Table 2, 4.13 mg/kg): -4.5 | # OF ANMLS ALIVE CALC/TOTAL ([2]; Table 2, 4.13 mg/kg): 4/5 | Average tumor WEIGHT CHANGE (DELTA) ([2]; Table 2, 4.13 mg/kg): 4.92 MGS | Average tumor weight, FINAL ([2]; Table 2, 4.13 mg/kg): 5.66 MGS | % T/C ([2]; Table 2, 8.25 mg/kg): 23% | ANML BODY WT DIFF (test minus control) ([2]; Table 2, 8.25 mg/kg): .1 | TEST BODY WT CHG ([2]; Table 2, 8.25 mg/kg): -3.9 | # OF ANMLS ALIVE CALC/TOTAL ([2]; Table 2, 8.25 mg/kg): 4/4 | Average tumor WEIGHT CHANGE (DELTA) ([2]; Table 2, 8.25 mg/kg): 3.38 MGS | Average tumor weight, FINAL ([2]; Table 2, 8.25 mg/kg): 4.19 MGS | % T/C ([2]; Table 2, 16.50 mg/kg): -93% | ANML BODY WT DIFF (test minus control) ([2]; Table 2, 16.50 mg/kg): -1.7 | TEST BODY WT CHG ([2]; Table 2, 16.50 mg/kg): -5.7 | # OF ANMLS ALIVE CALC/TOTAL ([2]; Table 2, 16.50 mg/kg): 3/4 | Average tumor WEIGHT CHANGE (DELTA) ([2]; Table 2, 16.50 mg/kg): -.55 MGS | Average tumor weight, FINAL ([2]; Table 2, 16.50 mg/kg): .04 MGS | ANML BODY WT DIFF (test minus control) ([2]; Table 2, 33.00 mg/kg): 1.3 | TEST BODY WT CHG ([2]; Table 2, 33.00 mg/kg): -2.7 | # OF ANMLS ALIVE CALC/TOTAL ([2]; Table 2, 33.00 mg/kg): 4/5 | Average tumor WEIGHT CHANGE (DELTA) ([2]; Table 2, 33.00 mg/kg): -.74 MGS | Average tumor weight, FINAL ([2]; Table 2, 33.00 mg/kg): .00 MGS | Order of effectiveness in B-16 melanoma cell proliferation study (B-16 melanoma cells): taxol>2'-(N,N-dimethylglycyl)taxol>2'-(N,N-diethylaminopropionyl)taxol>7-(N,N-dimethylglycyl)taxol

CC(=O)O[C@H]1C(=O)[C@]2(C)[C@@H](OC(=O)[C@H](C)N)C[C@H]3OC[C@@]3(OC(C)=O)[C@H]2[C@H](OC(=O)c2ccccc2)[C@]2(O)C[C@H](OC(=O)[C@H](O)[C@@H](NC(=O)c3ccccc3)c3ccccc3)C(C)=C1C2(C)C [Methanesulphonic acid salt of 7-(alanyl)taxol]
solubility (Solubility; read-out: Solubility): > 2000 µg/mL | half-life ([1]; human plasma (20 μg/mL)): 11.9 h

COc1cc2c(c(OC)c1OC)-c1ccc(OC)c(=O)cc1[C@@H](NC(C)=O)CC2 [colchicine]
Effect on microtubules (microtubules): depolymerize microtubules in cells

CC(=O)O[C@H]1C(=O)[C@]2(C)[C@@H](OC(=O)CN(C)C)C[C@H]3OC[C@@]3(OC(C)=O)[C@H]2[C@H](OC(=O)c2ccccc2)[C@]2(O)C[C@H](OC(=O)[C@H](OC(=O)CN(C)C)[C@@H](NC(=O)c3ccccc3)c3ccccc3)C(C)=C1C2(C)C [dimethanesulphonic acid salt of 2'7-(N,N-dimethylglycyl)taxol]
solubility (Solubility; read-out: Solubility): > 10000 µg/mL

CCN(CC)CCC(=O)O[C@@H](C(=O)O[C@H]1C[C@@]2(O)[C@@H](OC(=O)c3ccccc3)[C@@H]3[C@]4(OC(C)=O)CO[C@@H]4C[C@H](O)[C@@]3(C)C(=O)[C@H](OC(C)=O)C(=C1C)C2(C)C)[C@@H](NC(=O)c1ccccc1)c1ccccc1 [preferred compound 1, 2'(N,N-diethylaminopropionyl)taxol]
Ability to assemble microtubules (order) (microtubule assembly): taxol >7-(N,N-dimethylglycyl)taxol(11)>2'(N,N-diethylaminopropionyl)taxol(8)>2'(N,N-dimethylglycyl)taxol(2) | Order of effectiveness in B-16 melanoma cell proliferation study (B-16 melanoma cells): taxol>2'-(N,N-dimethylglycyl)taxol>2'-(N,N-diethylaminopropionyl)taxol>7-(N,N-dimethylglycyl)taxol

CC[C@]1(O)C[C@@H]2CN(CCc3c([nH]c4ccccc34)[C@@](C(=O)OC)(c3cc4c(cc3OC)N(C)[C@H]3[C@@](O)(C(=O)OC)[C@H](OC(C)=O)[C@]5(CC)C=CCN6CC[C@]43[C@@H]65)C2)C1 [vinblastine]
Effect on microtubules (microtubules): inhibit microtubule assembly and to depolymerize steady state microtubules

CC[C@]1(O)C[C@H]2CN(CCc3c([nH]c4ccccc34)[C@@](C(=O)OC)(c3cc4c(cc3OC)N(C=O)[C@H]3[C@@](O)(C(=O)OC)[C@H](OC(C)=O)[C@]5(CC)C=CCN6CC[C@]43[C@@H]65)C2)C1 [vincristine]
Effect on microtubules (microtubules): inhibit microtubule assembly and to depolymerize steady state microtubules
